From article PMC7794376 (Nature Communications, 2021)
≈ marks a conversion by molar mass, not a printed value. Where “and” joins values, the source holds several entries; their conditions need not be identical. Equal entries are not always repeated. Where two headings read alike, the source gives them in different places.

Legend:
MtbCoaBC [1] = target: T1, MtbCoaBC (Mycobacterium tuberculosis, UniProt P9WNZ1); test: biochemical; assay type: biochemical; conditions: for activity at 0.5 µM: relative to average DMSO CT; for inhibition, IC50 MtbCoaBC 1b / remaining activity relative to control, IC50 MtbCoaBC 1b: three replicates, column head and unit not shown
MtbCoaBC [2] = target: T1, MtbCoaBC; test: High-throughput end-point pyrophosphate quantification assay (Biomol Green); assay type: biochemical; conditions: MtbCoaB activity; end-point, 2 µM CTP, 40 µM L-cysteine, 30 µM PPA; read-out: IC50 biomol green assay
MtbCoaBC [3] = target: T1, MtbCoaBC; test: CMP quantification assay (UPLC), second half of CoaB reaction, variable L-cysteine; assay type: biochemical; conditions: for CMP formation rate, uM CMP/uM protein.s-1: MtbCoaBC 32 nM, replicates R1-R3
[4] = system: M. tuberculosis coaBC Tet-OFF conditional knockdown; assay type: cell-based, Mycobacterium tuberculosis; conditions: GAST/Fe minimal media
MsmCoaBC = MsmCoaBC (Mycolicibacterium smegmatis, UniProt A0QWT2); test: EnzChek pyrophosphate assay, CoaB activity of MsmCoaBC; assay type: biochemical, Mycobacterium smegmatis
Description: The commercially available EnzChek pyrophosphate assay kit (E-6645) (Life Technologies) was used for this assay. […] In the assays with HCoaB an enzyme concentration of 1 µM was used instead. […] Assays were performed on either a CLARIOstar or PHERAstar microplate reader (BMG Labtech) in 96-well plates (Greiner). A substrate mixture containing the substrates and the inhibitor was pre-incubated at 25 °C for 10 min. An enzyme solution was prepared and separately pre-incubated at 25 °C for 10 min. The reaction was initiated by the addition of the substrates to the solution containing the enzyme to a final volume of 75 µL. Enzymatic activity was monitored by following the absorbance at 360 nm for 30 min (100 cycles/20 s each cycle) and only the steady-state region of the assay was used for data analysis. Assays were performed in triplicates, including a negative control (lacking PPA) and a positive control (lacking inhibitor).

M. tuberculosis H37Rv = test: MIC determination in different media; assay type: cell-based; conditions: Mycobacterium tuberculosis, read-out: Minimum inhibitory concentration (MIC)
MtbCoaBC [5] = target: T1, MtbCoaBC; test: Competition assays, first half of CoaB reaction (EnzChek, variable CTP or PPA); assay type: biochemical; conditions: in words
[6] = inhibitor concentration 1 (log 0)
[7] = inhibitor concentration 2 (log 0.30103)
[8] = MsmCoaBC, 1b at concentration 1 (log 0; unit not given)
[9] = MsmCoaBC, 1b at concentration 2 (log 0.30103; unit not given)
[10] = MsmCoaBC, 0.015625 uM 1b, relative to average DMSO CT, replicates R1-R3
[11] = MsmCoaBC, 0.015625 uM 1b, replicates R1-R3
[12] = MsmCoaBC, 0.03125 uM 1b, relative to average DMSO CT, replicates R1-R3
[13] = MsmCoaBC, 0.03125 uM 1b, replicates R1-R3
[14] = MsmCoaBC, 0.0625 uM 1b, relative to average DMSO CT, replicates R1-R3
[15] = MsmCoaBC, 0.0625 uM 1b, replicates R1-R3
[16] = MsmCoaBC, 0.25 uM 1b, relative to average DMSO CT, replicates R1-R3
[17] = MsmCoaBC, 0.25 uM 1b, replicates R1-R3
[18] = MsmCoaBC, 0.5 uM 1b, replicates R1-R3

T1 sequence (P9WNZ1 whole entry): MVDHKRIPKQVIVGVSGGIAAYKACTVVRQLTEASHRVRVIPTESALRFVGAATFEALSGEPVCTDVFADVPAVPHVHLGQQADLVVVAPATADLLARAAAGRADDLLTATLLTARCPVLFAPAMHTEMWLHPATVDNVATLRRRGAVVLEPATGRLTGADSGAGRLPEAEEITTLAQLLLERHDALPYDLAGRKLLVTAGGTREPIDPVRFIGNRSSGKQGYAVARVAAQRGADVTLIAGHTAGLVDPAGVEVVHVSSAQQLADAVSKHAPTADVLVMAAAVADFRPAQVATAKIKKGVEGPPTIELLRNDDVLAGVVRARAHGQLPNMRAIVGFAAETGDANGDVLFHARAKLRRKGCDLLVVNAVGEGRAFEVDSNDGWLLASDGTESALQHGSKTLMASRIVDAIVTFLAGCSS
Sequence of MsmCoaBC (A0QWT2 whole entry): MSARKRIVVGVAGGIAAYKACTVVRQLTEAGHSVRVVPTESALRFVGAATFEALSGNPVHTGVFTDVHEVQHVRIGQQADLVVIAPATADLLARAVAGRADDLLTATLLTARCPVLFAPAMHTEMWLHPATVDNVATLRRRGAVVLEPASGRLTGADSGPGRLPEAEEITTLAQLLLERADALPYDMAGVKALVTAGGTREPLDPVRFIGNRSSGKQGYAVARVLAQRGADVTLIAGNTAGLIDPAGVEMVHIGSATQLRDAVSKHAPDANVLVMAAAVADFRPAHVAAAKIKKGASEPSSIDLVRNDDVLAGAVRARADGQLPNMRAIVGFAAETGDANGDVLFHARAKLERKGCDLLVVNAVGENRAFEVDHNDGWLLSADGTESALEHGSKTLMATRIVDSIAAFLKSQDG

O=C(c1ccc(O)cc1)c1ccc(O)c(O)c1O [compound 1b]
inhibition at 0.5 µM (MtbCoaBC [1]; 0.5 uM 1b, replicate R1, read-out: Inhibition % R1): 89.6% | activity at 0.5 µM (MtbCoaBC [1]; 0.5 uM 1b, replicate R1, read-out: Activity % R1): 10.4% | Activity R1 (MtbCoaBC [1]; 0.5 uM 1b, replicate R1, slope of absorbance at 360 vs time (s)): 0.000019995 | inhibition at 0.5 µM (MtbCoaBC [1]; 0.5 uM 1b, replicate R2, read-out: Inhibition % R2): 80.6% | activity at 0.5 µM (MtbCoaBC [1]; 0.5 uM 1b, replicate R2, read-out: Activity % R2): 19.4% | inhibition at 0.5 µM (MtbCoaBC [1]; 0.5 uM 1b, replicate R3, read-out: Inhibition % R3): 86.3% | activity at 0.5 µM (MtbCoaBC [1]; 0.5 uM 1b, replicate R3, read-out: Activity % R3): 13.7% | Activity R3 (MtbCoaBC [1]; 0.5 uM 1b, replicate R3, slope of absorbance at 360 vs time (s)): 0.000026339 | inhibition, IC50 MtbCoaBC 1b (MtbCoaBC [1]; [6]): 96.33 and 92.35 and 100.00 | remaining activity relative to control, IC50 MtbCoaBC 1b (MtbCoaBC [1]; [6]): -0.335 and 3.671 and 7.649 | inhibition, IC50 MtbCoaBC 1b (MtbCoaBC [1]; [7]): 100.00 | remaining activity relative to control, IC50 MtbCoaBC 1b (MtbCoaBC [1]; [7]): -0.361 and -1.371 and -2.001 | IC50 (MtbCoaBC [1]; read-out: IC50 EnzChek MtbCoaBC): 280 ± 50 nM | IC50 (MtbCoaBC [2]): 300 nM | CMP formation rate, uM CMP/uM protein.s-1 (MtbCoaBC [3]; 0.0625 uM 1b, 31.25 uM L-cysteine): 0.1694 uM CMP/uM protein.s-1 and 0.1962 uM CMP/uM protein.s-1 and 0.1676 uM CMP/uM protein.s-1 | CMP formation rate, uM CMP/uM protein.s-1 (MtbCoaBC [3]; 0.0625 uM 1b, 62.5 uM L-cysteine): 0.2113 uM CMP/uM protein.s-1 and 0.2325 uM CMP/uM protein.s-1 and 0.2281 uM CMP/uM protein.s-1 | CMP formation rate, uM CMP/uM protein.s-1 (MtbCoaBC [3]; 0.0625 uM 1b, 250 uM L-cysteine): 0.2822 uM CMP/uM protein.s-1 and 0.2759 uM CMP/uM protein.s-1 and 0.2797 uM CMP/uM protein.s-1 | CMP formation rate, uM CMP/uM protein.s-1 (MtbCoaBC [3]; 0.0625 uM 1b, 500 uM L-cysteine): 0.3148 uM CMP/uM protein.s-1 and 0.3211 uM CMP/uM protein.s-1 and 0.3277 uM CMP/uM protein.s-1 | CMP formation rate, uM CMP/uM protein.s-1 (MtbCoaBC [3]; 0.250 uM 1b, 31.25 uM L-cysteine): 0.1192 uM CMP/uM protein.s-1 and 0.1053 uM CMP/uM protein.s-1 and 0.1262 uM CMP/uM protein.s-1 | CMP formation rate, uM CMP/uM protein.s-1 (MtbCoaBC [3]; 0.250 uM 1b, 62.5 uM L-cysteine): 0.1329 uM CMP/uM protein.s-1 and 0.1247 uM CMP/uM protein.s-1 and 0.1395 uM CMP/uM protein.s-1 | CMP formation rate, uM CMP/uM protein.s-1 (MtbCoaBC [3]; 0.250 uM 1b, 250 uM L-cysteine): 0.1577 uM CMP/uM protein.s-1 and 0.155 uM CMP/uM protein.s-1 and 0.1593 uM CMP/uM protein.s-1 | CMP formation rate, uM CMP/uM protein.s-1 (MtbCoaBC [3]; 0.250 uM 1b, 500 uM L-cysteine): 0.1688 uM CMP/uM protein.s-1 and 0.1557 uM CMP/uM protein.s-1 and 0.1625 uM CMP/uM protein.s-1 | mode of inhibition (MtbCoaBC [3]; relative to L-cysteine, in words): uncompetitive inhibition | sensitisation on incremental silencing of CoaBC [4]: did not sensitise M. tuberculosis further | IC50 (MsmCoaBC): 260 ± 20 nM | inhibition, replicates 1-3 (MsmCoaBC; [8]): 86.05 and 84.82 and 84.29 | reaction rate (slope of absorbance at 360 nm versus time), replicates 1-3 (MsmCoaBC; [8]): 0.000051231 and 0.000045511 and 0.000049507 | remaining activity relative to control, replicates 1-3 (MsmCoaBC; [8]): 15.71 and 13.95 and 15.18 | inhibition, replicates 1-3 (MsmCoaBC; [9]): 94.07 | reaction rate (slope of absorbance at 360 nm versus time), replicates 1-3 (MsmCoaBC; [9]): -0.000000851 and -0.000003095 and 0.000019348 | remaining activity relative to control, replicates 1-3 (MsmCoaBC; [9]): -0.2608 and -0.9489 and 5.932 | Activity % (MsmCoaBC; [10]): 96.69% and 95.33% | activity at 0.015625 µM (MsmCoaBC; [10]): 98.6% | Activity (slope of absorbance at 360 nm vs time) (MsmCoaBC; [11]): 0.0003217 and 0.0003154 and 0.0003109 | Inhibition % (MsmCoaBC; [11]): 3.31% and 4.67% and 1.38% | Activity % (MsmCoaBC; [12]): 95.46% and 96.92% | activity at 0.03125 µM (MsmCoaBC; [12]): 93.2% | Activity (slope of absorbance at 360 nm vs time) (MsmCoaBC; [13]): 0.0003041 and 0.0003114 and 0.0003161 | Inhibition % (MsmCoaBC; [13]): 4.54% and 3.08% and 6.75% | Activity % (MsmCoaBC; [14]): 92.06% and 92.26% | activity at 0.0625 µM (MsmCoaBC; [14]): 85.7% | Activity (slope of absorbance at 360 nm vs time) (MsmCoaBC; [15]): 0.0002796 and 0.0003003 and 0.0003009 | Inhibition % (MsmCoaBC; [15]): 7.74% and 14.27% | inhibition at 0.0625 µM (MsmCoaBC; [15]): 7.94% | Activity % (MsmCoaBC; [16]): 48.31% and 55.06% | activity at 0.25 µM (MsmCoaBC; [16]): 46% | Activity (slope of absorbance at 360 nm vs time) (MsmCoaBC; [17]): 0.0001501 and 0.0001576 and 0.0001796 | Inhibition % (MsmCoaBC; [17]): 44.94% and 53.97% | inhibition at 0.25 µM (MsmCoaBC; [17]): 51.7% | Activity % (MsmCoaBC; MsmCoaBC, 0.5 uM 1b, relative to average DMSO CT, replicates R1-R3): 12.28% and 18.89% and 25.96% | Activity (slope of absorbance at 360 nm vs time) (MsmCoaBC; [18]): 0.000040045 and 0.000061602 and 0.000084683 | Inhibition % (MsmCoaBC; [18]): 74.04% and 87.72% | inhibition at 0.5 µM (MsmCoaBC; [18]): 81.1% | MIC (M. tuberculosis H37Rv; 7H9/ADC/Glycerol): > 250 µM | MIC (M. tuberculosis H37Rv; 7H9/Cholesterol/Tyloxapol): > 250 µM | MIC (M. tuberculosis H37Rv; GAST/Fe): 125 µM (≈ 30.8 µg/mL) | mode of inhibition (MtbCoaBC [5]; relative to CTP): uncompetitive inhibition | mode of inhibition (MtbCoaBC [5]; relative to PPA): uncompetitive inhibition
